Patent US9193728B2, “Fused tetracyclic pyrido [4,3-B] indole and pyrido [3,4-B] indole derivatives and methods of use” (Medivation Technologies, Inc., priority 2010, dated 2015)

Assays:
[1] = molecular target: T1, human recombinant histamine H2 receptor (Homo sapiens, UniProt P25021); assay: Histamine H2 radioligand binding ([125I]Aminopotentidine); details: compound at 1 μM; 0.1 nM [125I]Aminopotentidine; read-out: Histamine Binding (1 μM) H2, percentage inhibition
T1 construct: expressed in transfected cells; host or cells: CHO-K1
Protocol: To evaluate in radioligand binding assays the activity of compounds of the invention, human recombinant histamine H2 receptor expressed in Chinese hamster ovary (CHO) K1 cells (Ruat, M., Proc. Natl. Acad. Sci. USA. 87(5):1658, 1990) in a 50 mM Phosphate buffer, pH 7.4 was used. Compounds of the invention were incubated with 0.1 nM [^125I]Aminopotentidine for 120 min. at 25° C. Non-specific binding was estimated in the presence of 3 μM Tiotidine. Receptor proteins were filtered and washed, the filters were then counted to determine [^125I]Aminopotentidine specifically bound. Compounds were screened at 1 μM or lower, using 1% DMSO as vehicle. Biochemical assay results are presented as the percent inhibition of specific binding in Table 2.

[2] = molecular target: T2, human recombinant histamine H1 receptor (Homo sapiens, UniProt P35367); assay: Histamine H1 radioligand binding ([3H]Pyrilamine); details: compound at 1 μM; 1.2 nM [3H]Pyrilamine; read-out: Histamine Binding (1 μM) H1, percentage inhibition
T2 construct: expressed in transfected cells; host or cells: CHO-K1
Protocol: To evaluate in radioligand binding assays the activity of compounds of the invention, human recombinant histamine H1 receptor expressed in Chinese hamster ovary (CHO) K1 cells (De Backer, M. et al, Biochem. Biophys. Res. Comm. 197(3):1601, 1993) in a modified Tris-HCl buffer (50 mM Tris-HCl, pH 7.4, 2 mM MgCl2, 100 mM NaCl, 250 mM Sucrose) was used. Compounds of the invention were incubated with 1.2 nM [^3H]Pyrilamine for 180 min. at 25° C. Non-specific binding was estimated in the presence of 1 μM Pyrilamine. Receptor proteins were filtered and washed, the filters were then counted to determine [^3H]Pyrilamine specifically bound. Compounds were screened at 1 μM or lower, using 1% DMSO as vehicle. Biochemical assay results are presented as the percent inhibition of specific binding in Table 2.

[3] = molecular target: T3, human recombinant serotonin (5-Hydroxytryptamine) 5-HT2A receptor (Homo sapiens, UniProt P28223); assay: Serotonin 5-HT2A radioligand binding ([3H]Ketanserin); details: for inhibition at 1 µM: compound at 1 μM, read-out: Serotonin (1 μM) 5-HT2A, percentage inhibition of ligand binding
T3 construct: expressed in transfected cells; host or cells: CHO-K1
Protocol: To evaluate in radioligand binding assays the activity of compounds of the invention, human recombinant serotonin (5-Hydroxytryptamine) 5-HT2A receptor expressed in Chinese hamster ovary (CHO)-K1 cells (Bonhaus, D. et al, Br. J. Pharmacol. 115:622, 1995; Saucier, C. et al, J. Neurochem. 68:1998, 1997) in a 50 mM Tris-HCl buffer, pH 7.4, was used. Compounds of the invention were incubated with 0.5 nM [^3H]Ketanserin for 60 min. at 25° C. Non-specific binding was estimated in the presence of 1 μM Mianserin. Receptor proteins were filtered and washed, the filters were then counted to determine [^3H]Ketanserin specifically bound. Compounds were screened at 1 μM or lower, using 1% DMSO as vehicle. Biochemical assay results are presented as the percent inhibition of specific binding in Table 4.

[4] = molecular target: T4, human recombinant serotonin (5-Hydroxytryptamine) 5-HT2C receptor (Homo sapiens, UniProt P28335); assay: Serotonin 5-HT2C radioligand binding ([3H]Mesulergine); details: for inhibition at 1 µM: compound at 1 μM, read-out: Serotonin (1 μM) 5-HT2C, percentage inhibition of ligand binding
T4 construct: expressed in transfected cells; host or cells: CHO-K1
T4 sequence (P28335 33-458): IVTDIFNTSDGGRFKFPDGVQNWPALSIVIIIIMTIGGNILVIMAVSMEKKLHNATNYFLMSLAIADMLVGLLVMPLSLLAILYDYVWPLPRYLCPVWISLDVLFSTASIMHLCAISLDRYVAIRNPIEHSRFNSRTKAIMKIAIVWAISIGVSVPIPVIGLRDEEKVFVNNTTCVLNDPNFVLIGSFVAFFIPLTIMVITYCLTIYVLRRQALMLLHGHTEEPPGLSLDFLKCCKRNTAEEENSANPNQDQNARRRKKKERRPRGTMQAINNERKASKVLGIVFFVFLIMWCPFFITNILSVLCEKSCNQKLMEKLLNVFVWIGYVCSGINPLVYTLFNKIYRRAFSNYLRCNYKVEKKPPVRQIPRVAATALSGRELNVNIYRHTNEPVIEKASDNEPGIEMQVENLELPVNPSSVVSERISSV
Protocol: To evaluate in radioligand binding assays the activity of compounds of the invention, human recombinant serotonin (5-Hydroxytryptamine) 5-HT2C receptor expressed in Chinese hamster ovary (CHO)-K1 cells (Wolf, W. et al, J. Neurochem. 69:1449, 1997) in a modified Tris-HCl buffer (50 mM Tris-HCl, pH 7.4, 0.1% Ascorbic Acid, 10 μM Pargyline) was used. Compounds of the invention were incubated with 1 nM [^3H]Mesulergine for 60 min. at 25° C. Non-specific binding was estimated in the presence of 1 μM Mianserin. Receptor proteins were filtered and washed, the filters were then counted to determine [^3H]Mesulergine specifically bound. Compounds were screened at 1 μM or lower, using 1% DMSO as vehicle. Biochemical assay results are presented as the percent inhibition of specific binding in Table 4.

[5] = molecular target: T5, human recombinant dopamine D2L receptor (Homo sapiens, UniProt P14416); assay: Dopamine D2L radioligand binding ([3H]Spiperone); details: compound at 1 μM; read-out: Dopamine (1 μM) D2L, percentage inhibition of ligand binding
T5 construct: expressed in transfected cells; host or cells: CHO
Protocol: To evaluate in radioligand binding assays the activity of compounds of the invention, human recombinant dopamine D2L receptor expressed in Chinese hamster ovary (CHO) cells (Grandy, D. et al, Proc. Natl. Acad. Sci. USA. 86:9762, 1989; Hayes, G. et al, Mol. Endocrinol. 6:920, 1992) in a modified Tris-HCl buffer (50 mM Tris-HCl, pH 7.4, 1.4 mM Ascorbic Acid, 0.001% BSA, 150 mM NaCl) was used. Compounds of the invention were incubated with 0.16 nM [^3H]Spiperone for 120 min. at 25° C. Non-specific binding was estimated in the presence of 10 μM Haloperidol. Receptor proteins were filtered and washed, the filters were then counted to determine [^3H]Spiperone specifically bound. Compounds were screened at 1 μM or lower, using 1% DMSO as vehicle. Biochemical assay results are presented as the percent inhibition of specific binding in Table 3.

[6] = molecular target: T6, human recombinant serotonin (5-Hydroxytryptamine) 5-HT6 receptor (Homo sapiens, UniProt P50406); assay: Serotonin 5-HT6 radioligand binding ([3H]LSD); details: for inhibition at 1 µM: compound at 1 μM, read-out: Serotonin (1 μM) 5-HT6, percentage inhibition of ligand binding
T6 construct: expressed in transfected cells; host or cells: HeLa
Protocol: To evaluate in radioligand binding assays the activity of compounds of the invention, human recombinant serotonin (5-Hydroxytryptamine) 5-HT6 receptor expressed in human HeLa cells (Monsma, F. Jr. et al, Mol. Pharmacol. 43:320, 1993) in a modified Tris-HCl buffer (50 mM Tris-HCl, pH 7.4, 150 mM NaCl, 2 mM Ascorbic Acid, 0.001% BSA) was used. Compounds of the invention were incubated with 1.5 nM [3H]Lysergic acid diethylamide (LSD) for 120 min. at 37° C. Non-specific binding was estimated in the presence of 5 μM Serotonin (5-HT). Receptor proteins were filtered and washed, the filters were then counted to determine [3H]LSD specifically bound. Compounds were screened at 1 μM or lower, using 1% DMSO as vehicle. Biochemical assay results are presented as the percent inhibition of specific binding in Table 4.

[7] = molecular target: T7, human recombinant serotonin (5-Hydroxytryptamine) 5-HT7 receptor (Homo sapiens, UniProt P34969); assay: Serotonin 5-HT7 radioligand binding ([3H]LSD); details: for inhibition at 1 µM: compound at 1 μM, read-out: Serotonin (1 μM) 5-HT7, percentage inhibition of ligand binding
T7 construct: expressed in transfected cells; host or cells: CHO
Protocol: To evaluate in radioligand binding assays the activity of compounds of the invention, human recombinant serotonin (5-Hydroxytryptamine) 5-HT7 receptor expressed in Chinese hamster ovary (CHO) cells (Roth, B. et al, J. Pharmacol. Exp. Ther. 268:1403, 1994; Shen, Y. et al, J. Biol. Chem. 268:18200, 1993) in a modified Tris-HCl buffer (50 mM Tris-HCl, pH 7.4, 10 mM MgCl2, 0.5 mM EDTA) was used. Compounds of invention were incubated with 5.5 nM [^3H]Lysergic acid diethylamide (LSD) for 120 min. at 25° C. Non-specific binding was estimated in the presence of 10 μM Serotonin (5-HT). Receptor proteins were filtered and washed, the filters were then counted to determine [^3H]LSD specifically bound. Compounds were screened at 1 μM or lower, using 1% DMSO as vehicle. Biochemical assay results are presented as the percent inhibition of specific binding in Table 4.

[8] = Stability of product in acidic medium (note in preparation); assay type: physicochemical

T6 sequence (P50406 whole entry): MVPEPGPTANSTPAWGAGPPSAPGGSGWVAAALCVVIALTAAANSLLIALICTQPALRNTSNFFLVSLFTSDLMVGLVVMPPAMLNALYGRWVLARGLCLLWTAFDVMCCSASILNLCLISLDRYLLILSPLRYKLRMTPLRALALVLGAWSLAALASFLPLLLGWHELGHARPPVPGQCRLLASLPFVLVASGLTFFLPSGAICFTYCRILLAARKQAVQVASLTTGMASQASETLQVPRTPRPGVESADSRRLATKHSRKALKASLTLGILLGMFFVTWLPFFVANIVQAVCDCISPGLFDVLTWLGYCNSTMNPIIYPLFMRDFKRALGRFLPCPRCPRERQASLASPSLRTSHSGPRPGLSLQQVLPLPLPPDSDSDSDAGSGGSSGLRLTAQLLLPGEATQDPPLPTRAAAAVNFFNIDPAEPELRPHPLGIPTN
T7 sequence (P34969 whole entry): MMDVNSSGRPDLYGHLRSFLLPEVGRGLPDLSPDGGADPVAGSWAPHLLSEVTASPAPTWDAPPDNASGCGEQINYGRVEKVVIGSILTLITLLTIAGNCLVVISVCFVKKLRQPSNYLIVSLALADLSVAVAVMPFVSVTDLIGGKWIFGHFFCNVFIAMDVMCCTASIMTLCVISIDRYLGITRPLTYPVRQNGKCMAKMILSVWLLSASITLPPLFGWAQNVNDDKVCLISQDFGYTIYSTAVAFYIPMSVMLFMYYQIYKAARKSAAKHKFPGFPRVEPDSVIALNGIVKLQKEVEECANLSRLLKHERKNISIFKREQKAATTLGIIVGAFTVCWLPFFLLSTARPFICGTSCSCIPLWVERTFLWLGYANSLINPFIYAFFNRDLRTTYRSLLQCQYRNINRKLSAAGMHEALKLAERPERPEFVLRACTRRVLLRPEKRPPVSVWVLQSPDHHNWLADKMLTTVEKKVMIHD
T2 sequence (P35367 whole entry): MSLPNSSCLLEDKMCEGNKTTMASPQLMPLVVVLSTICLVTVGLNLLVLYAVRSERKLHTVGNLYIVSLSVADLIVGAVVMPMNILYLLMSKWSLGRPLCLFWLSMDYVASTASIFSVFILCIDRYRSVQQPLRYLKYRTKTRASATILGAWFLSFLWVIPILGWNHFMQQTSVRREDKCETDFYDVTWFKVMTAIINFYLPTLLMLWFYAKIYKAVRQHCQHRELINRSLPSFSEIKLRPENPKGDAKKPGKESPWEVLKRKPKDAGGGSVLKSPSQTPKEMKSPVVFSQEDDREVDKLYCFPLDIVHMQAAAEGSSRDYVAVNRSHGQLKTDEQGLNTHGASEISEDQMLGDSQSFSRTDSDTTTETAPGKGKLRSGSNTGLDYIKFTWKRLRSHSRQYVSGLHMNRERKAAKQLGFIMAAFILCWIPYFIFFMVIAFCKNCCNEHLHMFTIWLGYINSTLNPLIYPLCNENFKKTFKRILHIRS
T1 sequence (P25021 whole entry): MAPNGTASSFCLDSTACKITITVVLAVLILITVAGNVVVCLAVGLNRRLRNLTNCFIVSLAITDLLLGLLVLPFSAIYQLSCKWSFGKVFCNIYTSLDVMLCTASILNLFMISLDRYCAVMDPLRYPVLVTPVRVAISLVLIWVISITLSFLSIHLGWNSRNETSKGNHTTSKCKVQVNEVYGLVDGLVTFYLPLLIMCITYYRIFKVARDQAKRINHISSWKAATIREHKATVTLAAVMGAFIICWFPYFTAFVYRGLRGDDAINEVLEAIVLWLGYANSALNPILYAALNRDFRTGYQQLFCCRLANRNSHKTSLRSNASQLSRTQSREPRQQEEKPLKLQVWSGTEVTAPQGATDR
T3 sequence (P28223 whole entry): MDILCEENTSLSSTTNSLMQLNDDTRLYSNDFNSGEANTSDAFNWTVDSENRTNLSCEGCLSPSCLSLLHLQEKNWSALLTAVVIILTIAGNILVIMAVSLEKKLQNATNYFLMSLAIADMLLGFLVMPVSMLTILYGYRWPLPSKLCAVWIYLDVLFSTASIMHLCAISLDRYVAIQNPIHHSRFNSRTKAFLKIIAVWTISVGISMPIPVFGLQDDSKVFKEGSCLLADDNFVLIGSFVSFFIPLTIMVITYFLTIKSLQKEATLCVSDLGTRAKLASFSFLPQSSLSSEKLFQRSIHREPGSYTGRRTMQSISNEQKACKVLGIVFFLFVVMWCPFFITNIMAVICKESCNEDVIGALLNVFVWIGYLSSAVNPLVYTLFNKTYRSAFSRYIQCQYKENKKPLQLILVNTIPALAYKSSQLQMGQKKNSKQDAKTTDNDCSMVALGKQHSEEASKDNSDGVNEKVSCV
T5 sequence (P14416 whole entry): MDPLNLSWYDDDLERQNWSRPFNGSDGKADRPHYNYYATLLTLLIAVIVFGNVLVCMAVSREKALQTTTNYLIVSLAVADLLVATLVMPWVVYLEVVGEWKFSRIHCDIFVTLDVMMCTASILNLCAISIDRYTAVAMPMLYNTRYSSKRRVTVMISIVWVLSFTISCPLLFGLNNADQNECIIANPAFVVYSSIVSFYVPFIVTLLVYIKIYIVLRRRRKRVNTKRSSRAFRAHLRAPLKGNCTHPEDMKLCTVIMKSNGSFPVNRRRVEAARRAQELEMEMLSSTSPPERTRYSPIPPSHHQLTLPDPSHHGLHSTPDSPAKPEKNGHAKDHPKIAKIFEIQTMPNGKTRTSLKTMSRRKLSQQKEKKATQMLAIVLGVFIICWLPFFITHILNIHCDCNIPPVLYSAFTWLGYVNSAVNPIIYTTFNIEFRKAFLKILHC

SMILES	inhibition at 1 µM [1] [%]	inhibition at 1 µM [2] [%]	inhibition at 1 µM [3] [%]	inhibition at 1 µM [4] [%]	inhibition at 1 µM [5] [%]	inhibition at 1 µM [6] [%]	inhibition at 1 µM [7] [%]	inhibition at 0.1 µM ([7]; compound at 0.1 μM, read-out: Serotonin (0.1 μM) 5-HT7, percentage inhibition of ligand binding) [%]	inhibition at 0.1 µM ([3]; compound at 0.1 μM, read-out: Serotonin (0.1 μM) 5-HT2A, percentage inhibition of ligand binding) [%]	inhibition at 0.1 µM ([4]; compound at 0.1 μM, read-out: Serotonin (0.1 μM) 5-HT2C, percentage inhibition of ligand binding) [%]	stability in acidic medium [8]	inhibition at 0.1 µM ([6]; compound at 0.1 μM, read-out: Serotonin (0.1 μM) 5-HT6, percentage inhibition of ligand binding) [%]
Cc1cc2c3c(c1)c1c(n3CC(c3ccc(C)nc3)C2)CCN(C)C1 (stereo not drawn) [Compound 1]	42	44	20	19	-1	24	–	–	–	–	–	–
Cc1cc2c3c(c1)c1c(n3CC2c2ccc(F)cc2)CCN(C)C1 (stereo not drawn) [Compound 2]	48	66	87	92	17	57	89	–	–	–	–	–
Cc1cc2c3c(c1)c1c(n3CCO2)CCN(C)C1 [Compound 4, 5,8-dimethyl-1,2,7,8,9,10-hexahydro-[1,4]oxazino[2,3,4-hi]pyrido[4,3-b]indole]	10	53	56	79	6	25	46	–	–	–	–	–
Cc1cc2c3c(c1)c1c(n3CC(c3ccc(F)cc3)=C2)CCN(C)C1 [Compound 158]	–	27	–	–	99	–	–	36	81	55	unstable in acidic medium	82
